# pKd: −log10 of the molar value. Read-outs that look alike come from different tables or passages of the source. *1 amine or outer side, *2 acyl side, *3 side chain or, on linkers, in order; H or OH if unused. Where a SMILES comes first, the peptide text is derived from it. Bridges are numbered along the chain shown (N, C = ends). [ ]: non-standard residue; d: D form. The star is where a group is joined. hPhe(3,5-F2-4-CF3) = N[C@@H](CCc1cc(F)c(C(F)(F)F)c(F)c1)C(=O)O; hPhe(3-Cl-4-CF3) = N[C@@H](CCc1ccc(C(F)(F)F)c(Cl)c1)C(=O)O; X23 = C=CCCN([C@@H](Cc1ccc(C(F)(F)F)cc1)C(=O)[*:2])[*:1]; NPrPhe(4-CF3) = CCCN[C@@H](Cc1ccc(C(F)(F)F)cc1)C(=O)O; NMeGly(cPent) = CN[C@H](C(=O)O)C1CCCC1; X11 = CCC[C@](C)(N[*:1])C(=O)[*:2]; NMeD = CN[C@@H](CC(=O)O)C(=O)O; NMeL = CN[C@@H](CC(C)C)C(=O)O; αMeS = C[C@](N)(CO)C(=O)O; Morpholide = C1CN(*)CCO1; Ac5c = NC1(C(=O)O)CCCC1; Aze = O=C(O)[C@@H]1CCN1; Sar = CNCC(=O)O; Allyl = C=CC*
# Assays:
# [1] = target: GDP-bound HRAS wild-type protein (Homo sapiens, UniProt P01112); assay: Binding to HRAS by surface plasmon resonance (SPR), Single Cycle Kinetics; conditions: SPR, GDP-bound HRAS wild-type protein vs GDP-bound KRAS wild-type protein
# [2] = target: GDP-bound NRAS wild-type protein (Homo sapiens, UniProt P01111); assay: Binding to NRAS by surface plasmon resonance (SPR), Single Cycle Kinetics; conditions: SPR, GDP-bound NRAS wild-type protein vs GDP-bound KRAS wild-type protein
# [3] = target: GDP-bound KRAS wild-type protein (Homo sapiens, UniProt P01116); assay: Binding to KRAS by surface plasmon resonance (SPR), Single Cycle Kinetics; conditions: GDP-bound KRAS wild-type protein, read-out: KRAS KD
# [4] = SPR Single Cycle Kinetics, 1:1 binding model
# Sequence of GDP-bound NRAS wild-type protein (P01111 whole entry): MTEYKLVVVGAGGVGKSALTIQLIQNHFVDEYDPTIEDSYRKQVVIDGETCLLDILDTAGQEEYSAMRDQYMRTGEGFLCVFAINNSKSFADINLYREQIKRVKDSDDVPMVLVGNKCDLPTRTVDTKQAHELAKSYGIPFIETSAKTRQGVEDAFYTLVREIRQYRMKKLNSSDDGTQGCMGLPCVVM
# Sequence of GDP-bound HRAS wild-type protein (P01112 whole entry): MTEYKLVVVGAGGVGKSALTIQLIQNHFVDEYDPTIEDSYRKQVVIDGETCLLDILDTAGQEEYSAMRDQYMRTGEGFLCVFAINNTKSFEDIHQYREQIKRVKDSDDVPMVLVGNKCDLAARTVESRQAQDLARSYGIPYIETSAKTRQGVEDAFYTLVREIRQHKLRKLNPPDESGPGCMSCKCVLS
# Sequence of GDP-bound KRAS wild-type protein (P01116 whole entry): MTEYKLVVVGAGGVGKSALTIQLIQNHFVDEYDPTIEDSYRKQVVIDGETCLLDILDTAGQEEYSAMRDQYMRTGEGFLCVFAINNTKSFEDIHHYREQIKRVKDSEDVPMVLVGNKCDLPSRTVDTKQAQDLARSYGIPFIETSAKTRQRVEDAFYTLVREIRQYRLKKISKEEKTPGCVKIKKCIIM
"pKd [3, 4]","pKd ([3]; SPR, Single Cycle Kinetics)",Structure (SMILES),HRAS/KRAS (ratio of KD value with respect to HRAS to KD value with respect to KRAS) [1],NRAS/KRAS (ratio of KD value with respect to NRAS to KD value with respect to KRAS) [2],HRAS/KRAS (ratio of KD value for HRAS to KD value for KRAS) [1],NRAS/KRAS (ratio of KD value for NRAS to KD value for KRAS) [2]
8.82,–,"CCCN1C(=O)[C@@H]2CCN2C(=O)CN(C)C(=O)[C@H]([C@@H](C)CC)NC(=O)[C@H](CC(C)C)N(C)C(=O)C[C@@H](C(=O)N2CCOCC2)N(C)C(=O)[C@H](C2CCCC2)N(C)C(=O)[C@](C)(CCC)NC(=O)[C@@H]2CCCN2C(=O)[C@H](CCc2cc(F)c(C(F)(F)F)c(F)c2)NC(=O)CN(C)C(=O)[C@@H]1Cc1ccc(C(F)(F)F)cc1 [PP0794] ([NMeL]I[Sar][Aze][NPrPhe(4-CF3)][Sar][hPhe(3,5-F2-4-CF3)]P[X11][NMeGly(cPent)][NMeD]-Morpholide; lactam N-11)",B (a compound having 3 or more and less than 10 is denoted as B),C (A compound having a KD ratio of 0.1 or more and less than 3 is denoted as C),–,–
9.29,–,"C=CCOC[C@]1(C)NC(=O)[C@@H]2CCCN2C(=O)[C@H](CCc2cc(F)c(C(F)(F)F)c(F)c2)NC(=O)CN(C)C(=O)[C@H](Cc2ccc(C(F)(F)F)cc2)N(CCC)C(=O)CN(C)C(=O)CN(C)C(=O)[C@H]([C@@H](C)CC)NC(=O)[C@H](CC(C)C)N(C)C(=O)C[C@@H](C(=O)N(C)C)N(C)C(=O)[C@H](C2CCCC2)N(C)C1=O [PP0742] ([NMeL]I[Sar][Sar][NPrPhe(4-CF3)][Sar][hPhe(3,5-F2-4-CF3)]P[αMeS](Allyl)[NMeGly(cPent)][NMeD]-NMe2; lactam N-11)",B (a compound having 3 or more and less than 10 is denoted as B),B (a compound having 3 or more and less than 10 is denoted as B),–,–
–,10.09,CC[C@H](C)[C@@H]1NC(=O)[C@H](C2CC2)N(C)C(=O)C[C@@H](C(=O)N(C)CC)N(C)C(=O)[C@H](C2CCCC2)N(C)C(=O)C2(CCC2)NC(=O)[C@@H]2C[C@H](C)CN2C(=O)[C@H](CCc2ccc(C(F)(F)F)c(OC)c2)NC(=O)CN(C)C(=O)[C@H](Cc2ccc(C(F)(F)F)cc2)N2CC/C=C\C[C@@H](C2=O)N(C)C(=O)CN(C)C1=O [PP2069],–,–,A (a compound having 10 or more and less than 20 is denoted as A),AA (a compound having 20 or more is denoted as AA)
–,9.92,CCC[C@H]1C(=O)N[C@@H]([C@@H](C)CC)C(=O)N(C)CC(=O)N(C)[C@H]2C/C=C\CCN(C2=O)[C@@H](Cc2ccc(C)cc2)C(=O)N(C)CC(=O)N[C@@H](CCc2cc(F)c(C(F)(F)F)c(F)c2)C(=O)N2CC3(CC3)C[C@H]2C(=O)NC2(CC(C)(C)C2)C(=O)N(C)[C@@H](CC(C)(C)C)C(=O)N(C)[C@H](C(=O)N(C)C)CC(=O)N1C [PP2997],–,–,B (a compound having 3 or more and less than 10 is denoted as B),A (a compound having 10 or more and less than 20 is denoted as A)
9.70,–,C=CCCN1C(=O)CN(C)C(=O)CN(C)C(=O)[C@H]([C@@H](C)CC)NC(=O)[C@H](CC(C)C)N(C)C(=O)C[C@@H](C(=O)N2CCOCC2)N(C)C(=O)[C@H](C2CCCC2)N(C)C(=O)C2(CCCC2)NC(=O)[C@@H]2CCCN2C(=O)[C@H](CCc2ccc(C(F)(F)F)c(Cl)c2)NC(=O)CN(C)C(=O)[C@@H]1Cc1ccc(C(F)(F)F)cc1 [PP0129] ([NMeL]I[Sar][Sar][X23][Sar][hPhe(3-Cl-4-CF3)]P[Ac5c][NMeGly(cPent)][NMeD]-Morpholide; lactam N-11),–,–,C (A compound having a KD ratio of 0.1 or more and less than 3 is denoted as C),B (a compound having 3 or more and less than 10 is denoted as B)
